Laboratory results published in the NIST ThermoML archive (doi:10.1021/je0502593).

How the values were obtained:
[1] = 101.33 kPa, Liquid, Capillary tube (Ostwald / Ubbelohde) method
[2] = xn = mol fraction of the nth substance listed; conditions: 101 kPa, Liquid, Capillary tube (Ostwald / Ubbelohde) method, x1 = 0.364

CC1CCCCC1 [methylcyclohexane]
[1]
Conditions | viscosity [mPa·s]
298.61 K | 0.7341
303.63 K | 0.6844
308.95 K | 0.636
317.71 K | 0.5669
323.66 K | 0.5268
328.77 K | 0.4964
333.69 K | 0.469

FC(F)(F)C1(F)C(F)(F)C(F)(F)C(F)(F)C(F)(F)C1(F)F [perfluoro(methylcyclohexane)]
[1]
Conditions | viscosity [mPa·s]
319.2 K | 1.031
320.16 K | 1.011
323.18 K | 0.9582
328.13 K | 0.8787
333.11 K | 0.8074

FC(F)(F)C1(F)C(F)(F)C(F)(F)C(F)(F)C(F)(F)C1(F)F [perfluoro(methylcyclohexane)] + CC1CCCCC1
[2]
Conditions | viscosity [mPa·s]
320.16 K | 0.7472
320.19 K | 0.728
320.34 K | 0.689
320.5 K | 0.6723
320.74 K | 0.6544
321 K | 0.6428
321.39 K | 0.6292
321.96 K | 0.6151
322.62 K | 0.6018
324.05 K | 0.5798
325.5 K | 0.5617
326.98 K | 0.5452
328.41 K | 0.5313
330.08 K | 0.517
331.6 K | 0.5034
333.21 K | 0.4923
334.85 K | 0.4806
336.69 K | 0.4679
338.48 K | 0.4558
340.38 K | 0.4438
